In the CheMixHub viscosity set:

Experiment: xn = mol fraction of the nth substance listed

c1ccc(Oc2ccccc2)cc1 + CCOCC
298.15 K, 101 kPa
Settings | viscosity [mPa·s]
x2 = 0.0704 | 3.158
x2 = 0.1318 | 2.737
x2 = 0.2193 | 2.153
x2 = 0.3297 | 1.631
x2 = 0.4245 | 1.258
x2 = 0.5102 | 0.9926
x2 = 0.6076 | 0.7614
x2 = 0.7088 | 0.5733
x2 = 0.7826 | 0.4552
x2 = 0.9092 | 0.3106

c1ccc(Oc2ccccc2)cc1 + CCOc1ccccc1
298.15 K, 101 kPa
Settings | viscosity [mPa·s]
x2 = 0.1367 | 3.264
x2 = 0.2072 | 3.003
x2 = 0.3253 | 2.63
x2 = 0.3731 | 2.455
x2 = 0.5105 | 2.096
x2 = 0.6002 | 1.862
x2 = 0.7037 | 1.632
x2 = 0.8127 | 1.451
x2 = 0.9006 | 1.309

OCCN(CCO)CCO + CN1CCCC1=O
viscosity [mPa·s], 101 kPa
Settings | x2 = 0.0728 | x2 = 0.1508 | x2 = 0.2354 | x2 = 0.3199 | x2 = 0.4141 | x2 = 0.5135 | x2 = 0.6225 | x2 = 0.7384 | x2 = 0.863
293.15 K | 572.9 | 337.4 | 162.4 | 84.29 | 43.36 | 22.93 | 11.2 | 6.152 | 3.354
303.15 K | 255.2 | 159.4 | 84.21 | 47.61 | 27.51 | 14.93 | 8.012 | 4.62 | 2.747
313.15 K | 123.8 | 77.19 | 47.61 | 28.9 | 16.82 | 10.34 | 5.907 | 3.554 | 1.892
323.15 K | 56.97 | 40.67 | 29.54 | 18.75 | 11.33 | 7.604 | 4.552 | 2.766 | 1.497

CCC#N + CN(C)C=O
303.15 K, 101.33 kPa
Settings | viscosity [mPa·s]
x1 = 0.1013 | 0.6977
x1 = 0.1952 | 0.6428
x1 = 0.3003 | 0.5983
x1 = 0.4007 | 0.5648
x1 = 0.4949 | 0.5385
x1 = 0.5976 | 0.5113
x1 = 0.6964 | 0.4839
x1 = 0.7945 | 0.4533
x1 = 0.9 | 0.4186

NC(N)=O + CN(C)C=O
101 kPa
Settings | viscosity [mPa·s]
293.15 K, x1 = 0.00259 | 0.8641
293.15 K, x1 = 0.004089 | 0.8696
293.15 K, x1 = 0.005542 | 0.8749
293.15 K, x1 = 0.007625 | 0.8829
293.15 K, x1 = 0.008542 | 0.8861
293.15 K, x1 = 0.009703 | 0.8909
293.15 K, x1 = 0.01132 | 0.8964
293.15 K, x1 = 0.01367 | 0.906
298.15 K, x1 = 0.002771 | 0.8095
298.15 K, x1 = 0.00599 | 0.8163
298.15 K, x1 = 0.0088 | 0.8219
298.15 K, x1 = 0.01098 | 0.8295
298.15 K, x1 = 0.01142 | 0.8371
298.15 K, x1 = 0.01232 | 0.8421
298.15 K, x1 = 0.01349 | 0.8468
298.15 K, x1 = 0.0148 | 0.8557
303.15 K, x1 = 0.001637 | 0.7596
303.15 K, x1 = 0.003093 | 0.7641
303.15 K, x1 = 0.004755 | 0.7693
303.15 K, x1 = 0.005964 | 0.7728
303.15 K, x1 = 0.007418 | 0.7775
303.15 K, x1 = 0.008306 | 0.7799
303.15 K, x1 = 0.01015 | 0.7857
303.15 K, x1 = 0.01168 | 0.7908
308.15 K, x1 = 0.001989 | 0.7171
308.15 K, x1 = 0.003566 | 0.7214
308.15 K, x1 = 0.005107 | 0.7257
308.15 K, x1 = 0.006768 | 0.73
308.15 K, x1 = 0.008236 | 0.7345
308.15 K, x1 = 0.009277 | 0.7372
308.15 K, x1 = 0.01039 | 0.7403
308.15 K, x1 = 0.01098 | 0.7421

CCCCCCCCCCO + CO
viscosity [mPa·s], 101 kPa
Settings | 298.15 K | 308.15 K | 318.15 K
x2 = 0.05 | 10.38 | 7.137 | 5.136
x2 = 0.1 | 9.75 | 6.75 | 4.899
x2 = 0.15 | 9.096 | 6.352 | 4.649
x2 = 0.2 | 8.429 | 5.944 | 4.39
x2 = 0.25 | 7.757 | 5.531 | 4.121
x2 = 0.3 | 7.086 | 5.115 | 3.847
x2 = 0.35 | 6.425 | 4.699 | 3.567
x2 = 0.4 | 5.779 | 4.287 | 3.285
x2 = 0.45 | 5.154 | 3.88 | 3.003
x2 = 0.5 | 4.554 | 3.481 | 2.721
x2 = 0.55 | 3.984 | 3.093 | 2.443
x2 = 0.6 | 3.448 | 2.719 | 2.171
x2 = 0.65 | 2.947 | 2.36 | 1.905
x2 = 0.7 | 2.485 | 2.02 | 1.649
x2 = 0.75 | 2.063 | 1.7 | 1.405
x2 = 0.8 | 1.681 | 1.403 | 1.174
x2 = 0.85 | 1.34 | 1.131 | 0.958
x2 = 0.9 | 1.038 | 0.886 | 0.76
x2 = 0.95 | 0.776 | 0.669 | 0.582
